Source: patent US12497397B2, “Pyrrole compounds useful as antifungals” (WIGEN BIOMEDICINE TECHNOLOGY (SHANGHAI) CO., LTD., priority 2019, dated 2025)
Values after ≈ are worked out from the molar mass of the structure shown.

Experiments:
Experiment in all cases: In vitro minimum inhibitory concentration (MIC) test
Type in all cases: cell-based
Settings in all cases: RPMI 1640, 35° C., 24-48 h, 485 nm, lowest concentration inhibiting growth more than 80%
Aspergillus flavus = system: Aspergillus flavus
Experimental: (§1) Example 20: In Vtro Minimum Inhibitory Concentration (MIC) Test Strains used in the experiment are inoculated on Sabouraud glucose agar culture medium and cultured at 35° C. for 5 d; then 1 mL of 0.2% Tween diluted with 0.85% sterile normal saline is added into Sabouraud dextrose agar culture medium, and plate is shaken, before solution collected from plate surface is transferred into sterile tube, and fungus containing supernatant is transferred into sterile tube in full suspension so as to prepare strain diluent with concentration from 0.4*10^6 to 5*10^6 CFU/mL. Strain diluent prepared herein is diluted into RPMI 1640 culture medium in a ratio of 1:100. Such biological suspension is added into hole on the plate which contains drug diluent; all plates are incubated at 35° C. for 24-48 h, and light in wavelength of 485 nm is monitored for each hole to evaluate strain growth. MIC of compound is defined as follows: Compared with negative control free of drug, the lowest drug concentration able to inhibit growth for more than 80% of strains. A indicates MIC value>0.1 μg/mL, B indicates 0.1 μg/mL≥MIC value>0.01 μg/mL, and C indicates MIC value<0.01 μg/mL.

Aspergillus fumigatus = system: Aspergillus fumigatus
Experimental: as §1

Aspergillus niger = system: Aspergillus niger
Experimental: as §1

Aspergillus terreus = system: Aspergillus terreus
Experimental: as §1

Row | SMILES | MIC (Aspergillus flavus) [µg/mL] | MIC (Aspergillus fumigatus) [µg/mL] | MIC (Aspergillus niger) [µg/mL] | MIC (Aspergillus terreus) [µg/mL]
1 | Cc1cc(-c2ccccc2)c(C(=O)C(=O)Nc2ccc3c(c2)OC[C@@H]2CN(c4ncc(F)cn4)CCN32)n1C [Example 1-A] | < 0.01 | < 0.01 | < 0.01 | < 0.01
2 | Cc1cc(-c2ccccc2)c(C(=O)C(=O)Nc2ccc3c(c2)OC[C@H]2CN(c4ncc(F)cn4)CCN32)n1C [Example 1-B] | < 0.01 | < 0.01 | < 0.01 | < 0.01
3 | Cc1cc(-c2ccccc2)c(C(=O)C(=O)Nc2ccc3c(c2)OCC2CN(c4ncc(F)cn4)CCN32)n1C (stereo not drawn) [Example 1] | < 0.01 | < 0.01 | < 0.01 | < 0.01
4 | Cc1cc(C)nc(N2CCN3c4ccc(NC(=O)C(=O)c5c(-c6ccccc6)cc(C)n5C)cc4OC[C@@H]3C2)c1 [Example 2-A] | < 0.01 | < 0.01 | < 0.01 | < 0.01
5 | Cc1cc(C)nc(N2CCN3c4ccc(NC(=O)C(=O)c5c(-c6ccccc6)cc(C)n5C)cc4OC[C@H]3C2)c1 [Example 2-B] | < 0.01 | < 0.01 | < 0.01 | < 0.01
6 | Cc1cc(C)nc(N2CCN3c4ccc(NC(=O)C(=O)c5c(-c6ccccc6)cc(C)n5C)cc4OCC3C2)c1 (stereo not drawn) [Example 2] | < 0.01 | < 0.01 | < 0.01 | < 0.01
7 | Cc1cc(-c2ccccc2)c(C(=O)C(=O)Nc2ccc3c(c2)OCC2CN(CC(C)(C)C)CCN32)n1C (stereo not drawn) [Example 8] | 0.01 to 0.1 (≈ 0.02 to 0.2 µM) | < 0.01 | 0.01 to 0.1 (≈ 0.02 to 0.2 µM) | < 0.01
8 | Cc1cc(-c2ccccc2)c(C(=O)C(=O)Nc2cc3c(cc2F)N2CCN(c4ncc(F)cn4)CC2CO3)n1C (stereo not drawn) [Example 9] | < 0.01 | < 0.01 | < 0.01 | < 0.01
9 | Cc1cc2c(cc1NC(=O)C(=O)c1c(-c3ccccc3)cc(C)n1C)OCC1CN(c3ncc(F)cn3)CCN21 (stereo not drawn) [Example 10] | 0.01 to 0.1 (≈ 0.0185 to 0.185 µM) | 0.01 to 0.1 (≈ 0.0185 to 0.185 µM) | 0.01 to 0.1 (≈ 0.0185 to 0.185 µM) | 0.01 to 0.1 (≈ 0.0185 to 0.185 µM)
10 | Cc1cc(-c2ccccc2)c(C(=O)C(=O)Nc2ccc3c(c2)N(C)C[C@@H]2CN(c4ncc(F)cn4)CCN32)n1C [Example 12-A] | < 0.01 | < 0.01 | < 0.01 | < 0.01
11 | Cc1cc(-c2ccccc2)c(C(=O)C(=O)Nc2ccc3c(c2)N(C)C[C@H]2CN(c4ncc(F)cn4)CCN32)n1C [Example 12-B] | < 0.01 | < 0.01 | < 0.01 | < 0.01
12 | Cc1cc(-c2ccccc2)c(C(=O)C(=O)Nc2ccc3c(c2)N(C)CC2CN(c4ncc(F)cn4)CCN32)n1C (stereo not drawn) [Example 12] | 0.01 to 0.1 (≈ 0.0185 to 0.185 µM) | < 0.01 | 0.01 to 0.1 (≈ 0.0185 to 0.185 µM) | < 0.01
13 | Cc1cc(C)nc(N2CCN3c4ccc(NC(=O)C(=O)c5c(-c6ccccc6)cc(C)n5C)cc4N(C)C[C@@H]3C2)c1 [Example 13-A] | 0.01 to 0.1 (≈ 0.0182 to 0.182 µM) | < 0.01 | 0.01 to 0.1 (≈ 0.0182 to 0.182 µM) | < 0.01
14 | Cc1cc(C)nc(N2CCN3c4ccc(NC(=O)C(=O)c5c(-c6ccccc6)cc(C)n5C)cc4N(C)C[C@H]3C2)c1 [Example 13-B] | 0.01 to 0.1 (≈ 0.0182 to 0.182 µM) | < 0.01 | 0.01 to 0.1 (≈ 0.0182 to 0.182 µM) | < 0.01
15 | Cc1cc(C)nc(N2CCN3c4ccc(NC(=O)C(=O)c5c(-c6ccccc6)cc(C)n5C)cc4N(C)CC3C2)c1 (stereo not drawn) [Example 13] | 0.01 to 0.1 (≈ 0.0182 to 0.182 µM) | < 0.01 | 0.01 to 0.1 (≈ 0.0182 to 0.182 µM) | < 0.01
16 | CCn1c(C)cc(-c2ccccc2)c1C(=O)C(=O)Nc1ccc2c(c1)OCC1CN(c3ncc(F)cn3)CCN21 (stereo not drawn) [Example 14] | < 0.01 | < 0.01 | 0.01 to 0.1 (≈ 0.0185 to 0.185 µM) | < 0.01
17 | COCCn1c(C)cc(-c2ccccc2)c1C(=O)C(=O)Nc1ccc2c(c1)OCC1CN(c3ncc(F)cn3)CCN21 (stereo not drawn) [Example 16] | < 0.01 | 0.01 to 0.1 (≈ 0.0175 to 0.175 µM) | < 0.01 | < 0.01
18 | CCC(C)n1ncn(-c2ccc(N3CCN(c4ccc(OCC5COC(Cn6cncn6)(c6ccc(Cl)cc6Cl)O5)cc4)CC3)cc2)c1=O (stereo not drawn) [Itraconazole, reference compound] | > 0.1 | > 0.1 | > 0.1 | > 0.1
